Entries after “also recorded” stand apart in the source; their conditions may differ.
Legend:
[1] = Cyclic voltammetry, onset potential of polymerization; type: physicochemical; details: 1 mg/ml in 0.01 M NaCl, ITO working electrode, Ag/AgCl reference, 50 mV/s
Method: In order to define the on-set potential of the polymerization of the trimer a three electrode setup was used. The working electrode is an ITO coated glass, the counter electrode is a Platinum sheet and the reference electrode is an Ag/AgCl saturated electrode. The electrolyte was 1mg/ml of compound 1 in 0.01M NaCl. The active area of the ITO was 21mm x 8mm. A cyclic voltametry was performed in order to define the onset potential. The potential was applied between the working and the reference electrode while the current was measured between the working and the counter electrode. The potential was scanned from +0.5V to -0.5V, starting from 0V with a scan rate of 50mV/s. During the first scan current increases at around +0.3V defining the onset potential of the polymerization were observed. The polymer is deposited on the active area of the ITO coated glass.
In order to define the on-set potential of the polymerization of the trimer we used a three electrode setup. The working electrode is an ITO coated glass, the counter electrode is a Platinum sheet and the reference electrode is a Ag/AgCl saturated electrode. The electrolyte was 1 mg/ml of compound 1 in 0.01 M NaCl. The active area of the ITO was 21 mm x 8 mm. […] The potential was applied between the working and the reference electrode while the current was measured between the working and the counter electrode. […]

[2] = Two-probe conductivity measurement of conducting wires in rose xylem; type: physicochemical, Rosa floribunda; details: xylem wires in rose stem, two Au probes
Method: We chose to use cuttings of Rosa floribunda (garden rose) as our model plant system. The lower part of a rose stem was cut and the fresh cross section was immersed in an aqueous PEDOT-S:H solution for 24-48 h (Fig. 7A), during which time the PEDOT-S:H solution was taken up into the xylem vascular channel and transported apically. The rose was taken from the solution and rinsed in water. The outer bark, cortex and phloem of the bottom part of the stem were then gently peeled off, exposing dark continuous lines along individual 20-100 µm wide xylem channels (Fig. 7B-D). These "wires" extended more than 5 cm along the stem. […] The conductivity of PEDOT-S:H wires was measured using two Au probes applied into individual PEDOT-S:H xylem wires along the stem (Fig. 7D). From the linear fit of resistance versus distance between the contacts, we found electrical conductivity reading 0.13 S/cm with contact resistance ∼10 kΩ (Fig. 7E). […]
Figure 29A is an external views of a plant part, in this case the steam where the epidermis has been peeled off, also showing two gold plated microelectrodes 2300 used to contact and penetrate a surface of the stem in order to reach the xylem channel. […] This is the currently highest measured electronic conductivity in a plant. […]

[3] = Conductivity of ETE-S polymerized in air; type: physicochemical
Method: The conductivity of ETE-S based wires was measured using two Au probes applied into individual xylem wires along the stem (Fig. 38) and found to be equal to 7.25 +- 3.38 S/cm (n=17). […] The high conductivity was retained for cm scale wires showing that good interconnectivity is achieved along the xylem wires. […] The conductivity of 10mg/ml solution is 10^-5 S/cm while for 50mg/ml is on the order of 10^-3S/CM. In the plants we typically administrate 5ml solution of 1mg/ml concentration. An estimation of the total volume of the xylem tubing in a rose cutting of 15cm is 0.15ml taking into account an average diameter of xylem to be 20um. For this volume and since all the solution is taken up form the plant we end up with concentrations of the ETE-S molecule in the order of 30mg/ml. From microscopy images we see that approximately only 10% of the xylem is filled, while the majority of the rest is coated with the material and for that volume we have concentrations up to 300mg/ml. This high concentration in the plant allows the material to organize and polymerize in a way that creates highly conducting wires.

[4] = Xylem supercapacitor, specific capacitance of xylem wire electrodes; type: physicochemical, rose; details: from slope of capacitance per area vs length of xylem wire
Source text: Plant's anatomy upon functionalization with the conducting material provides an ideal architecture for developing supercapacitors in vivo. The long-range conducting xylem wires are parallel and electronically isolated to each other while are surrounded with cellular domains and extracellular space rich in electrolyte. Therefore we explored the charge storage capacity of the xylem wires. Two parallel xylem wires served as the electrodes (capacitor plates) and the plant tissue in between them the spacer. Two Au probes defined the electrodes contacts. In the schematic of Fig. 36.a we show the general structure and the wiring of a supercapacitor along with the optical micrograph of the corresponding supercapacitor in the plant Fig. 36.b.
From the slope of the discharging curve we calculate the capacitance of the device equal to 1.3 10^-4 F The capacitive behavior of the material is indicated and by the square shaped voltamogramm Fig. 43 in the potential range of -0.5V - 0.5V. In order to extract the specific capacitance of the xylem electrodes we measure devices of various dimensions. Xylem wires have typically diameter of 30-50um and lengths in the cm scale. In Fig. 36.d. we show the capacitance per area (diameter of xylem wire) vs the length. From the slope we calculated the specific capacitance and found it equal to 20F/cm3, a value in the typical range for conducting polymers. […]

[5] = tested on: young bean plant; assay: Immersion of bean plant roots or stem in compound 1 solution, plant survival and growth; type: in vivo; details: roots or stem immersed in 1 mg/mL aqueous solution; replanted in gel
Method: Figure 16A-E illustrates another experiment, with references to the alphabetical parts of figure in parenthesis. A young bean plant having a plurality of roots was used as a test specimen. In (A) the roots of the young bean plant were planted in a plastic container having Seedhru® gel as a soil substitute.. Two of the roots of the bean plant were immersed in a vial 1600 (B) containing aqueous solution of compound 1 (1 mg/mL). […] As soon as or shortly after the two roots were immersed the color of the compound 1 solution shifted from white to pink (D) and then back to white again. The reason of the color shift is still being investigated. […] After 24 hours one of the roots was removed from the compound 1 solution and can be seen in (E) and in figure 17. The other root was left immersed in the compound 1 solution for 24 more hours (total 48hours). After 48 hours the second root was cut of the bean plant and can be seen in figure 18.. Note that the part of the root which was immersed in compound 1 is now coated with polymerized compound 1 as indicated by the darker color. […]

onset potential of the polymerization [1] | electrical conductivity [2] | conductivity ([3]; 10mg/ml solution) | conductivity ([3]; 50mg/ml solution) | specific capacitance [4] | Compound | growth or survival of the plant [5]
1.1 V | – | – | – | – | c1scc2c1OCCO2 [EDOT] | –
– | approximately 1.5 S/cm | 10^-5 S/cm | ~10^-3 S/CM | 20 F/cm3 | exo-EDOT-Thiophene-EDOT-alkoxylfonate [compound 1] | survives for at least two weeks; also recorded: showed further growth

Source: patent publication EP3118613B1, “ELECTRIC COMPONENT WITH ORGANIC PART” (ACREO SWEDISH ICT AB, priority 2015, dated 2017)
